Measurements published in US6258790A, “Antisense modulation of integrin α4 expression” (Isis Pharmaceuticals, Inc., priority 1999, dated 2001).

Tests used:
[1] = tested on: Mouse experimental autoimmune encephalomyelitis (EAE); experiment: Mouse experimental autoimmune encephalomyelitis (EAE) model for multiple sclerosis; type: in vivo, mouse (CSJLF-1); conditions: for Peak Severity: score 0 to 5; for effect on EAE given therapeutically: therapeutic
human integrin α4 [2] = experiment: Inhibition of human integrin α4 protein levels by antisense oligonucleotides (LIPOFECTIN, flow cytometry with CD49d-FITC) in A375 melanoma cells; type: cell-based
human integrin α4 [3] = experiment: Integrin α4 protein expression in A375 cells after electroporation of oligonucleotide (flow cytometry); type: cell-based
Method: A375 cells were treated with ISIS 107245, 107248, 107252, 107255 and 107259 by electroporation at 175 volts, r=1, c=1000, 0.2 ml Opti-MEM, 1×10^6 cells /ml, 2 mm gap electrode using a BTX Electro Cell Manipulator 600 (Genetronics, San Diego Calif.). Oligonucleotide concentrations were 1, 3, 10 and 30 μM. Cells were harvested 24 hours after oligonucleotide treatment and strained with 2 ug/ml CD49d-FITC for flow cytometry as in the previous examples.
ISIS 107248 was compared directly to ISIS 27104 for ability to inhibit integrin α4 expression in A375 melanoma cells. Oligonucleotides were electroporated into cells as in the previous example.

[4] = EAE Experiment 1, 1 mg/kg daily SC
[5] = EAE Experiment 1, 5 mg/kg daily SC
[6] = EAE Experiment 1, 10 mg/kg daily SC
[7] = EAE Experiment 1, 20 mg/kg daily SC
[8] = EAE Experiment 3, 1 mg/kg 3× weekly
[9] = EAE Experiment 4, 0.01 mg/kg, prophylactic (P)
[10] = EAE Experiment 4, 0.1 mg/kg SC, prophylactic (P)
[11] = EAE Experiment 4, 1.0 mg/kg SC, prophylactic (P)
[12] = EAE Experiment 4, 1 mg/kg, therapeutic (T), day 18 to 31
[13] = EAE Experiment 4, 2.0 mg/kg SC, prophylactic (P)
[14] = EAE Experiment 5, 0.01 mg/kg, prophylactic (P)
[15] = EAE Experiment 5, 0.1 mg/kg SC, prophylactic (P)
[16] = EAE Experiment 5, 1.0 mg/kg SC, prophylactic (P)
[17] = EAE Experiment 5, 1 mg/kg, therapeutic (T), day 11 to 27
[18] = EAE Experiment 5, 2.0 mg/kg SC, prophylactic (P)

17044 (CCGCAGCCATGCGCTCTTGG; phosphorothioate, 2'-MOE/deoxy, further chemistry not given here) [compound 17044]
effect on EAE ([1]; EAE Experiment 1): reduced disease severity or delayed disease onset
Days to Onset [1, 4]: 17.25 days
Disease Incidence [1, 4]: 4/7
Peak Severity [1, 4]: 0.29
Days to Onset [1, 5]: 17 days
Disease Incidence [1, 5]: 6/7
Peak Severity [1, 5]: 1.86
Days to Onset [1, 6]: 12.75 days
Disease Incidence [1, 6]: 4/7
Peak Severity [1, 6]: 2.0
Days to Onset [1, 7]: 15 days
Disease Incidence [1, 7]: 5/7
Peak Severity [1, 7]: 1.43
effect on EAE ([1]; EAE Experiment 2): reduced disease severity and delayed disease onset at all concentrations
Days to Onset ([1]; EAE Experiment 2, 0.3 mg/kg SC): 16.57 days
Disease Incidence ([1]; EAE Experiment 2, 0.3 mg/kg SC): 7/7
Peak Severity ([1]; EAE Experiment 2, 0.3 mg/kg SC): 2.14
Days to Onset ([1]; EAE Experiment 2, 1 mg/kg IV): 17.2 days
Disease Incidence ([1]; EAE Experiment 2, 1 mg/kg IV): 5/7
Peak Severity ([1]; EAE Experiment 2, 1 mg/kg IV): 1.42
Days to Onset ([1]; EAE Experiment 2, 1 mg/kg SC): 18.25 days
Disease Incidence ([1]; EAE Experiment 2, 1 mg/kg SC): 4/7
Peak Severity ([1]; EAE Experiment 2, 1 mg/kg SC): 1.0
Days to Onset ([1]; EAE Experiment 2, 3 mg/kg SC): 16.4 days
Disease Incidence ([1]; EAE Experiment 2, 3 mg/kg SC): 7/7
Peak Severity ([1]; EAE Experiment 2, 3 mg/kg SC): 2.29
effect on EAE ([1]; EAE Experiment 3): reduced disease severity or delayed disease onset
Days to Onset ([1]; EAE Experiment 3, 0.5 mg/kg SC): 21.4 days
Disease Incidence ([1]; EAE Experiment 3, 0.5 mg/kg SC): 5/6
Peak Severity ([1]; EAE Experiment 3, 0.5 mg/kg SC): 1.5
Days to Onset [1, 8]: 20.3 days
Disease Incidence [1, 8]: 6/7
Peak Severity [1, 8]: 1.0
Days to Onset ([1]; EAE Experiment 3, 1.0 mg/kg SC): 19.25 days
Disease Incidence ([1]; EAE Experiment 3, 1.0 mg/kg SC): 4/5
Peak Severity ([1]; EAE Experiment 3, 1.0 mg/kg SC): 1.5
Days to Onset ([1]; EAE Experiment 3, 1.5 mg/kg SC): 17.5 days
Disease Incidence ([1]; EAE Experiment 3, 1.5 mg/kg SC): 4/7
Peak Severity ([1]; EAE Experiment 3, 1.5 mg/kg SC): 1.5
Days to Onset ([1]; EAE Experiment 3, 2 mg/kg SC): 20 days
Disease Incidence ([1]; EAE Experiment 3, 2 mg/kg SC): 2/6
Peak Severity ([1]; EAE Experiment 3, 2 mg/kg SC): 0.83
Days to Onset [1, 9]: 13.83 days
Disease Incidence [1, 9]: 6/7
Peak Severity [1, 9]: 1.86
Days to Onset [1, 10]: 16.29 days
Disease Incidence [1, 10]: 7/7
Peak Severity [1, 10]: 1.57
Days to Onset [1, 11]: 15 days
Disease Incidence [1, 11]: 5/5
Peak Severity [1, 11]: 2.2
Days to Onset [1, 12]: 13.3 days
Disease Incidence [1, 12]: 6/6
Peak Severity [1, 12]: 1.83
Days to Onset [1, 13]: 16.71 days
Disease Incidence [1, 13]: 7/7
Peak Severity [1, 13]: 2.29
effect on EAE given therapeutically ([1]; EAE Experiment 4): reduced disease severity when given therapeutically
Days to Onset [1, 14]: 11.57 days
Disease Incidence [1, 14]: 7/7
Peak Severity [1, 14]: 1.57
Days to Onset [1, 15]: 12.67 days
Disease Incidence [1, 15]: 6/7
Peak Severity [1, 15]: 1.14
Days to Onset [1, 16]: 11.33 days
Disease Incidence [1, 16]: 6/7
Peak Severity [1, 16]: 1.86
Days to Onset [1, 17]: 12.71 days
Disease Incidence [1, 17]: 7/7
Peak Severity [1, 17]: 1.42
Days to Onset [1, 18]: 12 days
Disease Incidence [1, 18]: 7/7
Peak Severity [1, 18]: 1.86
effect on EAE given therapeutically ([1]; EAE Experiment 5): reduced disease severity when given therapeutically
% Control (human integrin α4 [2]; Table 4, 10 nM): 86%
% Inhib. (human integrin α4 [2]; Table 4, 10 nM): 14%
% Control (human integrin α4 [2]; Table 4, 30 nM): 73%
% Inhib. (human integrin α4 [2]; Table 4, 30 nM): 27%
% Control (human integrin α4 [2]; Table 4, 100 nM): 60%
% Inhib. (human integrin α4 [2]; Table 4, 100 nM): 40%
% Control (human integrin α4 [2]; Table 4, 300 nM): 58%
% Inhib. (human integrin α4 [2]; Table 4, 300 nM (highest dose)): 42%
% Control (human integrin α4 [2]; Table 6, 10 nM): 97%
% Control (human integrin α4 [2]; Table 6, 30 nM): 84%
% Inhib. (human integrin α4 [2]; Table 6, 30 nM): 16%
% Control (human integrin α4 [2]; Table 6, 100 nM): 68%
% Inhib. (human integrin α4 [2]; Table 6, 100 nM): 32%
% Control (human integrin α4 [2]; Table 6, 300 nM): 39%
% Inhib. (human integrin α4 [2]; Table 6, 300 nM (highest dose)): 61%

107248 (antisense CTGAGTCTGTTTTCCATTCT; chemistry not given here) [compound 107248]
% Control (human integrin α4 [2]; Table 24, A375 cells, lipofectin, as Example 8): 34%
% Control (human integrin α4 [3]; Table 25, 1 nM as printed, 24 hours): 9.1%
% Control (human integrin α4 [3]; Table 25, 10 nM, 24 hours): 23.2%
% Control (human integrin α4 [3]; Table 25, 30 nM, 24 hours): 52.1%
% Control (human integrin α4 [3]; Table 26, 1 μM): 52.1%
% Inhib. (human integrin α4 [3]; Table 26, 1 μM): 47.9%
% Control (human integrin α4 [3]; Table 26, 3 μM): 17.4%
% Inhib. (human integrin α4 [3]; Table 26, 3 μM): 82.6%
% Control (human integrin α4 [3]; Table 26, 10 μM): 7.9%
% Inhib. (human integrin α4 [3]; Table 26, 10 μM): 92.1%
% Control (human integrin α4 [3]; Table 26, 30 μM): 2.9%
% Inhib. (human integrin α4 [3]; Table 26, 30 μM): 97.1%
